Results as given in ChEMBL document CHEMBL1201862, “PubChem BioAssay data set” (2004).
The source made the active and inactive calls.

What was measured:
[1] = Luminescence Cell-Based Dose Retest to Confirm Inhibitors of Cancer Stem Cells. [Related pubchem assays (depositor defined):AID2717, AID2721]; type: functional; conditions: Homo sapiens
[2] = test system: Vero; experiment: West Nile virus antiviral activity, cell-based, CPE readout (AID 1621); type: functional; conditions: Chlorocebus sabaeus
[3] = test system: Vero; experiment: West Nile virus CPE inhibition, SAR follow-up, cell-based, synthesized analogs (AID 2238); type: functional; conditions: Chlorocebus sabaeus
[4] = test system: Vero; experiment: Vero E6 cell cytotoxicity, SAR follow-up, cytotoxicity control for West Nile virus antiviral project, synthesized analogs (AID 2244); type: functional; conditions: Chlorocebus sabaeus
[5] = biological target: T1, Short transient receptor potential channel 4 (Mus musculus, UniProt Q9QUQ5); experiment: TRPC4 positive allosteric modulators, dose response, cell-based, HEK293 TRPC4/mu-opioid, Fluo-4 calcium, EC20 DAMGO (AID 434941); type: functional
T1 sequence (Q9QUQ5 whole entry): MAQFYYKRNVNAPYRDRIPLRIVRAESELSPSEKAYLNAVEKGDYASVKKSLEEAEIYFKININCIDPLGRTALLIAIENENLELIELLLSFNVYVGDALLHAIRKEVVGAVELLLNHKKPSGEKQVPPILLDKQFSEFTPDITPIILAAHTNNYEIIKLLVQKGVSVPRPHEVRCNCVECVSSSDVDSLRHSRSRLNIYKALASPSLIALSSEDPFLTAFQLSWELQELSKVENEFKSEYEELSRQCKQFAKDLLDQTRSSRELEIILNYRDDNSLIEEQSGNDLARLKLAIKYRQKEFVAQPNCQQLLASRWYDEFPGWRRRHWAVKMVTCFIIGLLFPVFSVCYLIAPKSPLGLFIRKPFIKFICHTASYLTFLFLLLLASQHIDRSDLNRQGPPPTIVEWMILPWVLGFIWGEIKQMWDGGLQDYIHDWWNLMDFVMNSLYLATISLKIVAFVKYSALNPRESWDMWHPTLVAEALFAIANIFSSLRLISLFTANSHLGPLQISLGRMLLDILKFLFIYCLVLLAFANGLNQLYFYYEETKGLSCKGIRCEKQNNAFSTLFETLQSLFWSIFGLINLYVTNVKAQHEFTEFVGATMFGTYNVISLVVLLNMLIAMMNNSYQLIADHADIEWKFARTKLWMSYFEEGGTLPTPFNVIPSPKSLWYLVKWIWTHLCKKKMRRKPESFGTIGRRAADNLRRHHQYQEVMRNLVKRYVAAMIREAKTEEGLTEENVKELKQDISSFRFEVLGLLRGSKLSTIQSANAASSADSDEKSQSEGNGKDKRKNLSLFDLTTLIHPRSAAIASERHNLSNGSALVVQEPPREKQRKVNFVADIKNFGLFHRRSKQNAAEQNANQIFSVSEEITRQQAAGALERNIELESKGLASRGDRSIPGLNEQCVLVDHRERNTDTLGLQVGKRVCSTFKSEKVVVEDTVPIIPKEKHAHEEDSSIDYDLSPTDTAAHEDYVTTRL

[6] = biological target: Hexokinase (Trypanosoma brucei, UniProt Q38C41); experiment: Confirmation assay for inhibitors of Trypanosoma brucei hexokinase 1-Analogue-first series. [Related pubchem assays (depositor defined):AID1430, AID1632, AID2516, AID2560, AID2579, AID2600, AID449725, AID492951]; type: functional
Chain of Hexokinase (Q38C41 whole entry): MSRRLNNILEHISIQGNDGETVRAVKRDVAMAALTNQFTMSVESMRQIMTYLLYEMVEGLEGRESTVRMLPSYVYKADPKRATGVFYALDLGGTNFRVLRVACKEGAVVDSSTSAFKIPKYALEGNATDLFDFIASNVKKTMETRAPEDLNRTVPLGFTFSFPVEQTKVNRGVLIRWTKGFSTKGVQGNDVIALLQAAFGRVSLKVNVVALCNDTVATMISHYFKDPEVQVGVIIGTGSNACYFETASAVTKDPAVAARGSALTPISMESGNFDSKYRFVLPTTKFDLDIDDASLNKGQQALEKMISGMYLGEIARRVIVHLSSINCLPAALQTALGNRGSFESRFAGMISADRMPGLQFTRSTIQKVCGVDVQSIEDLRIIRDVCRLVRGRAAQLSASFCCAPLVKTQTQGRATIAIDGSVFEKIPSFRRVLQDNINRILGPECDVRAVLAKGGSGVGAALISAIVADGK

[7] = biological target: T2, Hexokinase HKDC1 (Homo sapiens, UniProt Q2TB90); experiment: HKDC1 hexokinase inhibitors, dose response, biochemical, W721R variant (AID 504729); type: functional
T2 sequence (Q2TB90 whole entry): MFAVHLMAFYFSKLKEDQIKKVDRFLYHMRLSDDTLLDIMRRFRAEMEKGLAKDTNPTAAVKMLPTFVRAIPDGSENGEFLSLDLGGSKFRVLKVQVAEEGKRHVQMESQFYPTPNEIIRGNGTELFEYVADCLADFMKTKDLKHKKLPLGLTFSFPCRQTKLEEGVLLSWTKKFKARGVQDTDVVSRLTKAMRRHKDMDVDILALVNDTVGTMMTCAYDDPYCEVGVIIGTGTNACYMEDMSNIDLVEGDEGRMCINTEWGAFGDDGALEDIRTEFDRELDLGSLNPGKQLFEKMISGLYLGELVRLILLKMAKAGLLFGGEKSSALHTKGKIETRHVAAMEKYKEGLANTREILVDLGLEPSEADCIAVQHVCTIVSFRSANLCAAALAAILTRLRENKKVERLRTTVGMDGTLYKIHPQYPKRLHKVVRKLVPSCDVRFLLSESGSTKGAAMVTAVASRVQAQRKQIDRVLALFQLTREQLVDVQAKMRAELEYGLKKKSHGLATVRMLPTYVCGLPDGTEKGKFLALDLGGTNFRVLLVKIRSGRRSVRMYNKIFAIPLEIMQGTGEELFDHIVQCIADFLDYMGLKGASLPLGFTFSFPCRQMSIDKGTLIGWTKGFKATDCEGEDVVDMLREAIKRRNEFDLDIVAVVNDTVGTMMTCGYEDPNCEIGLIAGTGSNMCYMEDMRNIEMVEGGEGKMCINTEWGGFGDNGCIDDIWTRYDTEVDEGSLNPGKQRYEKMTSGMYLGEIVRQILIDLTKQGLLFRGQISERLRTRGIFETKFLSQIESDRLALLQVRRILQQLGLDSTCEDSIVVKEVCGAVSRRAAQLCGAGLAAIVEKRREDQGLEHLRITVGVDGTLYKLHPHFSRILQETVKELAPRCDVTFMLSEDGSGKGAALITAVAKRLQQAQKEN

[8] = biological target: Hexokinase-1 (Homo sapiens, UniProt P19367); experiment: hexokinase 1 activators, dose response, selectivity assay for HKDC1 activator project, biochemical (AID 504762); type: functional
Chain of Hexokinase-1 (P19367 whole entry, the tested form may be a part): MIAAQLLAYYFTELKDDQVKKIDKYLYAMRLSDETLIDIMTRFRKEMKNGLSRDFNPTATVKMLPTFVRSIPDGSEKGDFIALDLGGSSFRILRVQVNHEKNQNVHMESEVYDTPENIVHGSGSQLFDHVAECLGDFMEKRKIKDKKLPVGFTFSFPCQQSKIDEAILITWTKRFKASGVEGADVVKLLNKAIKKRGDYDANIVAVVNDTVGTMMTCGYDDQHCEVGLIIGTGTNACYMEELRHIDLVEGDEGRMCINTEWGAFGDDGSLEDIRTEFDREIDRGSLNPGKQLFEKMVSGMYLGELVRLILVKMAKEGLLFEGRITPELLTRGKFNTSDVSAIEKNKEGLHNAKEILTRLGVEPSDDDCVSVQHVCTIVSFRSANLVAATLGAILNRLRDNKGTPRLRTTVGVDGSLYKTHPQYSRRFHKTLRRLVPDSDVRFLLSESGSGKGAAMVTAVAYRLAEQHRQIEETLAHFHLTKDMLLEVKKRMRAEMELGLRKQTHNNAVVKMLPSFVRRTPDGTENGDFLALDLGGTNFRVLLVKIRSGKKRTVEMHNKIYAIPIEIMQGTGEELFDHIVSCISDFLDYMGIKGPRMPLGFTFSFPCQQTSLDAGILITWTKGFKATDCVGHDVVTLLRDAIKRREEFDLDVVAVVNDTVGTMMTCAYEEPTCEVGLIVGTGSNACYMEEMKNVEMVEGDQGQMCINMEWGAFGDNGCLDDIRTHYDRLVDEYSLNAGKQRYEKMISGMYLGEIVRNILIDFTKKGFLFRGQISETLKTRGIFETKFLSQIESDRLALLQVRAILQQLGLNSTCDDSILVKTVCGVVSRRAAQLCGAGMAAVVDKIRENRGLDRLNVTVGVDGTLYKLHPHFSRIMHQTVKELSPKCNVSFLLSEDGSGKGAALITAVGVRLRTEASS

[9] = biological target: T3, Fatty acid synthase (Homo sapiens, UniProt P49327); experiment: FAS thioesterase domain inhibitors, dose response, biochemical, endpoint fluorescence intensity, uHTS hits (AID 624327); type: functional;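 note: fluorescence from hydrolysis of an O-methyl fluorescein acyl ester substrate by the enzyme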
T3 sequence (P49327 whole entry, the tested form may be a part): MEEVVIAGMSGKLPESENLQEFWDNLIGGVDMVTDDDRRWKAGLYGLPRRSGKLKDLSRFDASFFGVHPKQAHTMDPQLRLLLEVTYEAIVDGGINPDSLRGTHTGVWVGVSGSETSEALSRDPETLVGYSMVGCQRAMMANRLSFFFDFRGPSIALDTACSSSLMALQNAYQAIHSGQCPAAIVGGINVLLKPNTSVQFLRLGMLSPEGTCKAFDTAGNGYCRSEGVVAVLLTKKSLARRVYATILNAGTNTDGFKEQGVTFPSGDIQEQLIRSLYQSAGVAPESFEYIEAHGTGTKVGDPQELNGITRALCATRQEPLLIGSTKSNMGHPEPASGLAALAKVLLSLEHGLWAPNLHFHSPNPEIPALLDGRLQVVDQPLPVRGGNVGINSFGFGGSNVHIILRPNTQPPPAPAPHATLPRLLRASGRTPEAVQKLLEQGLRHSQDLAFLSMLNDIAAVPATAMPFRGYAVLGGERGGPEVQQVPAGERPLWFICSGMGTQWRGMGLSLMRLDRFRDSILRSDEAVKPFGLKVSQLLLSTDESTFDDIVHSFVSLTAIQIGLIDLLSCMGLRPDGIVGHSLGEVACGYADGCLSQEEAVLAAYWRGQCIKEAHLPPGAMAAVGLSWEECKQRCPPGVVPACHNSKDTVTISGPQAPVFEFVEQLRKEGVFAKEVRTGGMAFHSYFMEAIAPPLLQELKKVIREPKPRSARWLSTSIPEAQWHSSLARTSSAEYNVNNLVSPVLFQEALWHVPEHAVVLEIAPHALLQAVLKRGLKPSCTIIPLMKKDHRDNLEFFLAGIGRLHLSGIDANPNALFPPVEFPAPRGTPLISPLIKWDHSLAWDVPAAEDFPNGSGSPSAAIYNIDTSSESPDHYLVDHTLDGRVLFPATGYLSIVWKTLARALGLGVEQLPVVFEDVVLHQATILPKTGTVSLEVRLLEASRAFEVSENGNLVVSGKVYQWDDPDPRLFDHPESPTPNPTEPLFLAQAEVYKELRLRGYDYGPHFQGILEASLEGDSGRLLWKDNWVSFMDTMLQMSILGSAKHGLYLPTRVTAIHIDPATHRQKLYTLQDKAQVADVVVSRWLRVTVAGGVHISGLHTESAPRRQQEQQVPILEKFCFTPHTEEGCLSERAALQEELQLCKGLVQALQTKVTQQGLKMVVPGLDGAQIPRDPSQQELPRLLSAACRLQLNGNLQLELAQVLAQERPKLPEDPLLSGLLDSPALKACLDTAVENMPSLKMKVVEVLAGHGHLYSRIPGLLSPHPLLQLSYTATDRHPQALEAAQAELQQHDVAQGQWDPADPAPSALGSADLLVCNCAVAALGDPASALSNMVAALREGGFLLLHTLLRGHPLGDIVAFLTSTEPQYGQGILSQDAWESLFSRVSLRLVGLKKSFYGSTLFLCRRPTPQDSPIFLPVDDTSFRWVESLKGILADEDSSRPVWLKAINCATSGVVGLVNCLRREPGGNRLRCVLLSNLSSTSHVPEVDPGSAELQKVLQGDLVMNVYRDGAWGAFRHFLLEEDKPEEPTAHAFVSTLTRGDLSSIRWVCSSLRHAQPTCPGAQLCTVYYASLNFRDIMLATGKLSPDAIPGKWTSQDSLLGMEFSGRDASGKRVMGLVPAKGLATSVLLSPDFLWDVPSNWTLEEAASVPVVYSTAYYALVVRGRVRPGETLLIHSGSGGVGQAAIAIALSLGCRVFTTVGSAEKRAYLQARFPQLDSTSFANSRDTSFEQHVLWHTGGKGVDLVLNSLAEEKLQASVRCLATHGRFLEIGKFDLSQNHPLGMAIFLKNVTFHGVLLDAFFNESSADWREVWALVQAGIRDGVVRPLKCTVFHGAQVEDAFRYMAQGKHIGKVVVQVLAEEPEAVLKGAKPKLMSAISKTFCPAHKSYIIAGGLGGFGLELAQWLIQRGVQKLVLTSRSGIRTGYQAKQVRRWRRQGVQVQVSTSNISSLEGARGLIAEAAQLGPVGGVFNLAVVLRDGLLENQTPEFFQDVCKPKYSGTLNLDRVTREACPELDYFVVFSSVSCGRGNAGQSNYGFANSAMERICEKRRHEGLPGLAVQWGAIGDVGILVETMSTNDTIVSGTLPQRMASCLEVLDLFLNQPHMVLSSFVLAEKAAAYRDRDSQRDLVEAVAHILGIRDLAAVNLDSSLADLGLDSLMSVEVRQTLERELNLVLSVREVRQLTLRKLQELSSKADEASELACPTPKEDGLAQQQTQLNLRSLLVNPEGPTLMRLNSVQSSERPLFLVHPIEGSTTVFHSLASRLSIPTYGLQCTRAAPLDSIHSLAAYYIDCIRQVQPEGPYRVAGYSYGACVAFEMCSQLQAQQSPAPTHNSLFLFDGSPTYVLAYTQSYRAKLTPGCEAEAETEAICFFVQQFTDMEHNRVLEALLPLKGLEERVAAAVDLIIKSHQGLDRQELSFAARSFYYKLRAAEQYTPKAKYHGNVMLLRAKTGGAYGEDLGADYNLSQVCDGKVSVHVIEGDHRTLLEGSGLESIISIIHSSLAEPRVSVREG

[10] = biological target: T4, Streptokinase A (Streptococcus pyogenes serotype M1, UniProt P10520); experiment: S. pyogenes streptokinase expression inhibitors, potency, dose response, plasminogen activation absorbance, OD405 (AID 1914); type: functional, Streptococcus pyogenes M1 GAS;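 note: secreted streptokinase activity via plasminogen activation per viability signal from cell pellet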
T4 sequence (P10520 whole entry): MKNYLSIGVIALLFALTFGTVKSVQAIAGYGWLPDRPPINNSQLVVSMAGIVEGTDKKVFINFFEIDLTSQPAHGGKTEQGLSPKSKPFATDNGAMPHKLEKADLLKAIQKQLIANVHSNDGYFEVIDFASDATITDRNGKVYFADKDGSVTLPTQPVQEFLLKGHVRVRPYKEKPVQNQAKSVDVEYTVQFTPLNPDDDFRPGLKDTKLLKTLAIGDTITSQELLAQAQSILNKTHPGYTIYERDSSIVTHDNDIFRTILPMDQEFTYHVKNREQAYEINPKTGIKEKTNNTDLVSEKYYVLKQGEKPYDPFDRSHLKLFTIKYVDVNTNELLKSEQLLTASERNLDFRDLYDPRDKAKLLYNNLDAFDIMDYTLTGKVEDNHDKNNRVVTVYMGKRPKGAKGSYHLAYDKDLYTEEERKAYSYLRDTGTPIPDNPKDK

[11] = biological target: T5, Aminopeptidase N (Plasmodium falciparum FcB1/Columbia, UniProt O96935); experiment: P. falciparum M1AAP inhibitors, biochemical, fluorogenic H-Leu-NHMec substrate, 1536-well (AID 1445); set-up: species or system Plasmodium falciparum 3D7, 3D7
T5 sequence (O96935 whole entry): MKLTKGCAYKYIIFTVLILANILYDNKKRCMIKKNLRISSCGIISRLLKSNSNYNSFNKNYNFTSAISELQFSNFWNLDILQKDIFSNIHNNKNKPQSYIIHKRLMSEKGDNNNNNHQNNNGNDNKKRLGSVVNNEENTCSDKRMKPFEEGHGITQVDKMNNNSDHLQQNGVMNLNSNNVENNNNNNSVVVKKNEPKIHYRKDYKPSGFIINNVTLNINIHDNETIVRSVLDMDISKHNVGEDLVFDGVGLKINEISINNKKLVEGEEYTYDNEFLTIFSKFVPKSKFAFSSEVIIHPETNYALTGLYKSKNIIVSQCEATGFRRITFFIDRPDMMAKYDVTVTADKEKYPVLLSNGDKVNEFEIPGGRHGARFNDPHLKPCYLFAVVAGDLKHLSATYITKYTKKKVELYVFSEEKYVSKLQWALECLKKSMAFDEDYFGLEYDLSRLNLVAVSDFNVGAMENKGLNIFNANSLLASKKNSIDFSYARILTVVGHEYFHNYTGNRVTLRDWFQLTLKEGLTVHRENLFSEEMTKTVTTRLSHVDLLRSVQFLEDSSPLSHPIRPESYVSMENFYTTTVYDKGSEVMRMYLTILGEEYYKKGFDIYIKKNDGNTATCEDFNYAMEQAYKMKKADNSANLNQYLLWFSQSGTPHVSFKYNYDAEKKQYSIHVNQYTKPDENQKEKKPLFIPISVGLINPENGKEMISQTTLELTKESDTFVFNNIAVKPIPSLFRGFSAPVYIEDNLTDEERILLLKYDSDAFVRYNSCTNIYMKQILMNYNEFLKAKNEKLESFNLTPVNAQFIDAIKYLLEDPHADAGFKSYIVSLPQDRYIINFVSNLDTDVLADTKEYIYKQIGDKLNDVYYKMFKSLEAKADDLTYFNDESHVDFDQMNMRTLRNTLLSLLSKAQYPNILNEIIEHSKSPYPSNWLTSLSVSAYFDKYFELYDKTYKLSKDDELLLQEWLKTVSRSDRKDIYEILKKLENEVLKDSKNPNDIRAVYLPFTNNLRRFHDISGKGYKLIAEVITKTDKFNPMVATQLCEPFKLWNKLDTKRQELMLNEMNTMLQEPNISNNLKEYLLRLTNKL

[12] = biological target: Envelope glycoprotein gp160 (Human immunodeficiency virus 1, UniProt Q6QLK5); experiment: inhibitors of HIV fusion peptide binding, primary screen, biochemical, uHTS, fluorescence dequenching (AID 1986)
[13] = test system: Streptococcus; experiment: Group A Streptococcus viability loss, dose response, counter-screen for streptokinase expression inhibitor project, luminescence, BacTiterGlo (AID 1915); type: functional, organism-based;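 note: potency for reduction of bacterial viability or growth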
[14] = biological target: T6, Calpain-2 catalytic subunit (Sus scrofa, UniProt P43367); experiment: pig calpain II inhibitor potency, dose response, biochemical, fluorogenic peptide substrate (AID 1420); type: functional
T6 sequence (P43367 whole entry): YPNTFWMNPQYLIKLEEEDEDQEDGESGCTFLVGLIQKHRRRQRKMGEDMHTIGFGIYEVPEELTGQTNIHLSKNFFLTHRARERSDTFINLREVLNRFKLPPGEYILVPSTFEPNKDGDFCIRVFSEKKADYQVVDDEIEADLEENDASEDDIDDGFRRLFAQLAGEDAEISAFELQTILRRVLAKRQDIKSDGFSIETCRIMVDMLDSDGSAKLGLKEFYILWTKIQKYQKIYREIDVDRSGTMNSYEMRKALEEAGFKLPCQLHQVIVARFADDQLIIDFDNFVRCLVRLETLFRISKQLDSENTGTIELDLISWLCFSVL

[15] = biological target: T3, Fatty acid synthase; experiment: FAS thioesterase domain inhibitors, dose response, biochemical, kinetic fluorescence intensity (AID 624326); type: functional;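 note: rate of fluorescence rise from hydrolysis of a fluorogenic O-methyl fluorescein ester substrate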
[16] = biological target: Bifunctional protein GlmU (Mycobacterium tuberculosis, UniProt P9WMN3); experiment: Inhibitors of Mycobacterial Glucosamine-1-phosphate acetyl transferase (GlmU). Secondary screen.; set-up: species or system Mycobacterium tuberculosis H37Rv
Chain of Bifunctional protein GlmU (P9WMN3 whole entry): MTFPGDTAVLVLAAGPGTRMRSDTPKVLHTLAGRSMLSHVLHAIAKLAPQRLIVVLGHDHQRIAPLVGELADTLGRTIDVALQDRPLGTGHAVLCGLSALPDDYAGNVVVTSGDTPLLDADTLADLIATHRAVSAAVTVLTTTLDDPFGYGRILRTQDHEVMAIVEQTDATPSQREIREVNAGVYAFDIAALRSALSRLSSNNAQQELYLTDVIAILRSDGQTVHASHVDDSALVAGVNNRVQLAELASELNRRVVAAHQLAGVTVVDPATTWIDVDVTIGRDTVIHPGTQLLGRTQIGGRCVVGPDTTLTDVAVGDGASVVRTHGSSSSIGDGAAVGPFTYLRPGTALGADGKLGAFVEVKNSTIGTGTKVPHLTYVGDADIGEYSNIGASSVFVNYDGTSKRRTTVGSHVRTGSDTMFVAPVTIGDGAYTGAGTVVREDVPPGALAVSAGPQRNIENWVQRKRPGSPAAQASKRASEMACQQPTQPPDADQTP

[17] = test system: Streptococcus sp. 'group A'; experiment: growth inhibition of control SK(-) GAS strain, dose response, counter-screen for streptokinase expression inhibitor project, luminescence, kanamycin, BacTiterGlo, confirmation (AID 1900); type: functional, organism-based
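Throughout, for AC50: cells exposed to compound for roughly 70 hours or longer before luminescence read.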

## CCN(CC)CCCN=C(S)N1CCN(c2nc(-c3ccccc3)cs2)CC1
[1]
  AC50: 3.77 µM (active)
[2]
  IC50: > 100 µM (active)
[3]
  IC50: 17.3 µM (active)
[4]
  CC50: 15.3 µM (active)

## CN(C)CCOc1cc(Cl)cc(Cl)c1
[5]
  EC50: 0.67 µM (active)

## CC(C)c1ccc(C(=O)Nc2cc(Cl)ccc2C(=O)O)cc1
[6]
  IC50: 2.89 µM (active)

## O=C(CN(C(=O)CCC(=O)Nc1ccccn1)c1ccc2c(c1)OCO2)NCc1ccc(F)cc1
[7]
  IC50: > 80 µM (inactive)
[8]
  EC50: > 80 µM (inactive)

## O=c1c(C(c2ccc([N+](=O)[O-])cc2)c2c(O)oc3ccccc3c2=O)c(O)oc2ccccc12
[9]
  IC50: 4.65 µM (active)
[10]
  EC50: 13.4 µM (active)
[11]
  IC50: 34 µM (active)
[12]
  IC50: 13.8 µM (active)
[13]
  EC50: 102 µM (active)
[14]
  IC50: 7.83 µM (active)
[15]
  IC50: 3.67 µM (active)
[16]
  IC50: 122 µM (active)
[17]
  EC50: 8.09 µM (active)
